Legend:
Type in all cases: in vivo
[1] = tested on: Alopecurus myosuroides; test: Post-emergence herbicidal action against ALOMY; conditions: visual rating about 3 weeks after treatment
How it was run: (§1)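 Weeds sown in sandy loam, greenhouse-grown 2 to 3 weeks and treated at the one-leaf stage. Compounds formulated as WP or EC were sprayed onto green parts as aqueous suspension/emulsion with 0.5% additive at 600 l/ha water. Activity rated visually after about 3 weeks versus untreated controls (100% = plants dead, 0% = like control).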

[2] = tested on: Avena fatua; test: Post-emergence herbicidal action against AVEFA; conditions: visual rating about 3 weeks after treatment
How it was run: as §1

[3] = tested on: DIGSA; test: Post-emergence herbicidal action against DIGSA; conditions: visual rating about 3 weeks after treatment
How it was run: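 Greenhouse-grown plants sprayed at one-leaf stage (2–3 weeks after sowing) with WP or EC formulations as aqueous suspension/emulsion plus 0.5% additive, 600 l/ha water. Activity rated visually about 3 weeks later versus untreated controls, 100% = plants dead, 0% = like controls.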

[4] = tested on: Echinochloa crus-galli; test: Post-emergence herbicidal action against ECHCG; conditions: visual rating about 3 weeks after treatment
How it was run: as §1

[5] = tested on: Lolium rigidum; test: Post-emergence herbicidal action against LOLRI; conditions: visual rating about 3 weeks after treatment
How it was run: as §1

[6] = tested on: Setaria viridis; test: Post-emergence herbicidal action against SETVI; conditions: visual rating about 3 weeks after treatment
How it was run: as §1

[7] = tested on: Abutilon theophrasti; test: Post-emergence herbicidal action against ABUTH; conditions: visual rating about 3 weeks after treatment
How it was run: as §1

[8] = tested on: Amaranthus retroflexus; test: Post-emergence herbicidal action against AMARE
How it was run: as §1

[9] = tested on: Matricaria inodora; test: Post-emergence herbicidal action against MATIN
How it was run: as §1

[10] = tested on: Pharbitis purpurea; test: Post-emergence herbicidal action against PHBPU
How it was run: as §1

[11] = tested on: Polygonum convolvulus; test: Post-emergence herbicidal action against POLCO
How it was run: as §1

[12] = tested on: Stellaria media; test: Post-emergence herbicidal action against STEME
How it was run: as §1

[13] = tested on: Viola tricolor; test: Post-emergence herbicidal action against VIOTR
Procedure: Post-Emergence Herbicidal Action Against Harmful Plants and Crop Plant Compatibility Seeds of monocotyledonous and dicotyledonous weeds and crop plants are placed in sandy loam in plastic or wood-fibre pots, covered with soil and cultivated in a greenhouse under controlled growth conditions. 2 to 3 weeks after sowing, the test plants are treated at the one-leaf stage. The compounds of the invention, formulated in the form of wettable powders (WP) or as emulsion concentrates (EC), are then sprayed onto the green parts of the plants as aqueous suspension or emulsion with addition of 0.5% additive at a water application rate of 600 l/ha (converted). After the test plants have been kept in the greenhouse under optimum growth conditions for about 3 weeks, the activity of the preparations is rated visually in comparison to untreated controls. For example, 100% activity=the plants have died, 0% activity=like control plants. [table]

[14] = tested on: Veronica persica; test: Post-emergence herbicidal action against VERPE
How it was run: as §1

[15] = tested on: Hordeum murinum; test: Post-emergence herbicidal action against HORMU
How it was run: as §1

[16] = 80 g a.i./ha, visual rating about 3 weeks after treatment

Structure (SMILES) | Herbicidal action against [%] ALOMY ([1]; 20 g a.i./ha) | Herbicidal action against [%] ALOMY ([1]; 80 g a.i./ha) | Herbicidal action against [%] AVEFA ([2]; 20 g a.i./ha) | Herbicidal action against [%] AVEFA ([2]; 80 g a.i./ha) | Herbicidal action against [%] DIGSA ([3]; 20 g a.i./ha) | Herbicidal action against [%] DIGSA ([3]; 80 g a.i./ha) | Herbicidal action against [%] ECHCG ([4]; 80 g a.i./ha) | Herbicidal action against [%] LOLRI ([5]; 20 g a.i./ha) | Herbicidal action against [%] LOLRI ([5]; 80 g a.i./ha) | Herbicidal action against [%] SETVI ([6]; 20 g a.i./ha) | Herbicidal action against [%] SETVI ([6]; 80 g a.i./ha) | Herbicidal action against [%] AMARE [8, 16] | Herbicidal action against [%] MATIN [9, 16] | Herbicidal action against [%] STEME ([12]; 20 g a.i./ha) | Herbicidal action against [%] STEME ([12]; 80 g a.i./ha) | Herbicidal action against [%] VIOTR ([13]; 20 g a.i./ha) | Herbicidal action against [%] VERPE ([14]; 20 g a.i./ha) | Herbicidal action against [%] VERPE ([14]; 80 g a.i./ha) | Herbicidal action against [%] HORMU ([15]; 20 g a.i./ha) | Herbicidal action against [%] HORMU ([15]; 80 g a.i./ha) | also measured
CSCCOC(=O)C1C=CC(NC(=O)C2(C)CC(c3cc(F)cc(F)c3)=NO2)C1 (stereo not drawn) [Example I-06] | 100% | 100% | 100% | 100% | 90% | 90% | 90% | 100% | 100% | 80% | 90% | 80% | 80% | 90% | 90% | 90% | 80% | 90% | 90% | 90% | Herbicidal action against [%] ECHCG ([4]; 20 g a.i./ha): 90%; Herbicidal action against [%] ABUTH ([7]; 20 g a.i./ha): 80%; Herbicidal action against [%] ABUTH ([7]; 80 g a.i./ha): 80%; Herbicidal action against [%] AMARE ([8]; 20 g a.i./ha): 80%; Herbicidal action against [%] PHBPU ([10]; 20 g a.i./ha): 80%; Herbicidal action against [%] PHBPU ([10]; 80 g a.i./ha): 80%; Herbicidal action against [%] POLCO ([11]; 20 g a.i./ha): 90%; Herbicidal action against [%] POLCO ([11]; 80 g a.i./ha): 90%
CSCCOC(=O)C1=CC(NC(=O)C2(C)CC(c3cc(F)cc(F)c3)=NO2)CC1 (stereo not drawn) [Example I-51] | 90% | 90% | 100% | 100% | 80% | 80% | 90% | 90% | 100% | 80% | 80% | 80% | 80% | 90% | 90% | 90% | 90% | 90% | 90% | 90% | Herbicidal action against [%] ECHCG ([4]; 20 g a.i./ha): 80%; Herbicidal action against [%] PHBPU ([10]; 80 g a.i./ha): 80%; Herbicidal action against [%] POLCO ([11]; 80 g a.i./ha): 80%
CSCCOC(=O)C1C=CC(NC(=O)C2(C(F)(F)F)CC(c3cc(F)cc(F)c3)=NO2)C1 (stereo not drawn) [Example I-17] | 90% | 90% | 100% | 100% | 90% | 90% | 90% | 100% | 100% | 80% | 80% | 80% | 80% | 80% | 90% | 80% | 80% | 80% | 90% | 90% | Herbicidal action against [%] ECHCG ([4]; 20 g a.i./ha): 80%; Herbicidal action against [%] ABUTH ([7]; 20 g a.i./ha): 80%; Herbicidal action against [%] ABUTH ([7]; 80 g a.i./ha): 80%; Herbicidal action against [%] AMARE ([8]; 20 g a.i./ha): 80%; Herbicidal action against [%] MATIN ([9]; 20 g a.i./ha): 80%; Herbicidal action against [%] PHBPU ([10]; 20 g a.i./ha): 80%; Herbicidal action against [%] PHBPU ([10]; 80 g a.i./ha): 80%; Herbicidal action against [%] POLCO ([11]; 20 g a.i./ha): 80%; Herbicidal action against [%] POLCO ([11]; 80 g a.i./ha): 80%; Herbicidal action against [%] VIOTR ([13]; 80 g a.i./ha): 80%
CSCCOC(=O)C1C=CC(NC(=O)C2(C)CC(c3cc(F)cc(Cl)c3)=NO2)C1 (stereo not drawn) [Example I-32] | 90% | 100% | 90% | 90% | 80% | 80% | 80% | 90% | 90% | 80% | 80% | 80% | 80% | 80% | 90% | 80% | 80% | 90% | 80% | 80% | Herbicidal action against [%] ECHCG ([4]; 20 g a.i./ha): 80%; Herbicidal action against [%] MATIN ([9]; 20 g a.i./ha): 80%; Herbicidal action against [%] PHBPU ([10]; 80 g a.i./ha): 80%
CSCCOC(=O)C1C=CC(NC(=O)C2(C3CC3)CC(c3cc(F)cc(F)c3)=NO2)C1 (stereo not drawn) [Example I-28] | 90% | 90% | 90% | 90% | 90% | 90% | 90% | 90% | 90% | 90% | 90% | 80% | 90% | 90% | 90% | 90% | 90% | 90% | 90% | 90% | Herbicidal action against [%] ECHCG ([4]; 20 g a.i./ha): 90%; Herbicidal action against [%] ABUTH ([7]; 20 g a.i./ha): 90%; Herbicidal action against [%] ABUTH ([7]; 80 g a.i./ha): 90%; Herbicidal action against [%] AMARE ([8]; 20 g a.i./ha): 80%; Herbicidal action against [%] MATIN ([9]; 20 g a.i./ha): 80%; Herbicidal action against [%] POLCO ([11]; 20 g a.i./ha): 80%; Herbicidal action against [%] POLCO ([11]; 80 g a.i./ha): 90%; Herbicidal action against [%] VIOTR ([13]; 80 g a.i./ha): 80%
CSCCOC(=O)C1C=CC(NC(=O)C2(C)CC(c3cc(Cl)cc(C#N)c3)=NO2)C1 (mixture of isomers) [Example I-49] | 90% | 100% | 90% | 90% | 80% | 90% | 80% | 90% | 90% | – | 80% | 100% | 80% | 90% | 90% | 90% | 80% | 90% | 80% | 80% | Herbicidal action against [%] ABUTH ([7]; 80 g a.i./ha): 80%; Herbicidal action against [%] AMARE ([8]; 20 g a.i./ha): 90%; Herbicidal action against [%] PHBPU ([10]; 20 g a.i./ha): 80%; Herbicidal action against [%] VIOTR ([13]; 80 g a.i./ha): 80%
CSCCOC(=O)[C@@H]1C=C[C@H](NC(=O)C2(C(F)(F)F)CC(c3cc(F)cc(Cl)c3)=NO2)C1 (stereo partly drawn) [Example I-33, 2-methylsulfanylethyl (1S,4R)-4-[[3-(3-chloro-5-fluorophenyl)-5-(trifluoromethyl)-4H-isoxazole-5-carbonyl]amino]cyclopent-2-ene-1-carboxylate] | 80% | 90% | 80% | 100% | 80% | 80% | 80% | 90% | 90% | 80% | 80% | – | 80% | 90% | 90% | 90% | 80% | 80% | 80% | 90% | Herbicidal action against [%] ABUTH ([7]; 20 g a.i./ha): 80%; Herbicidal action against [%] ABUTH ([7]; 80 g a.i./ha): 80%; Herbicidal action against [%] MATIN ([9]; 20 g a.i./ha): 80%
